Source: ChEMBL document CHEMBL1138708, “Synthesis of analogs of (1,4)-3- and 5-imino oxazepane, thiazepane, and diazepane as inhibitors of nitric oxide synthases” (Bioorg Med Chem Lett, 2004)

What was measured:
Nitric oxide synthase 3 = molecular target: T1, Nitric oxide synthase 3 (Homo sapiens, UniProt P29474); assay: Inhibitory concentration against Endothelial nitric oxide synthase
T1 sequence (P29474 whole entry): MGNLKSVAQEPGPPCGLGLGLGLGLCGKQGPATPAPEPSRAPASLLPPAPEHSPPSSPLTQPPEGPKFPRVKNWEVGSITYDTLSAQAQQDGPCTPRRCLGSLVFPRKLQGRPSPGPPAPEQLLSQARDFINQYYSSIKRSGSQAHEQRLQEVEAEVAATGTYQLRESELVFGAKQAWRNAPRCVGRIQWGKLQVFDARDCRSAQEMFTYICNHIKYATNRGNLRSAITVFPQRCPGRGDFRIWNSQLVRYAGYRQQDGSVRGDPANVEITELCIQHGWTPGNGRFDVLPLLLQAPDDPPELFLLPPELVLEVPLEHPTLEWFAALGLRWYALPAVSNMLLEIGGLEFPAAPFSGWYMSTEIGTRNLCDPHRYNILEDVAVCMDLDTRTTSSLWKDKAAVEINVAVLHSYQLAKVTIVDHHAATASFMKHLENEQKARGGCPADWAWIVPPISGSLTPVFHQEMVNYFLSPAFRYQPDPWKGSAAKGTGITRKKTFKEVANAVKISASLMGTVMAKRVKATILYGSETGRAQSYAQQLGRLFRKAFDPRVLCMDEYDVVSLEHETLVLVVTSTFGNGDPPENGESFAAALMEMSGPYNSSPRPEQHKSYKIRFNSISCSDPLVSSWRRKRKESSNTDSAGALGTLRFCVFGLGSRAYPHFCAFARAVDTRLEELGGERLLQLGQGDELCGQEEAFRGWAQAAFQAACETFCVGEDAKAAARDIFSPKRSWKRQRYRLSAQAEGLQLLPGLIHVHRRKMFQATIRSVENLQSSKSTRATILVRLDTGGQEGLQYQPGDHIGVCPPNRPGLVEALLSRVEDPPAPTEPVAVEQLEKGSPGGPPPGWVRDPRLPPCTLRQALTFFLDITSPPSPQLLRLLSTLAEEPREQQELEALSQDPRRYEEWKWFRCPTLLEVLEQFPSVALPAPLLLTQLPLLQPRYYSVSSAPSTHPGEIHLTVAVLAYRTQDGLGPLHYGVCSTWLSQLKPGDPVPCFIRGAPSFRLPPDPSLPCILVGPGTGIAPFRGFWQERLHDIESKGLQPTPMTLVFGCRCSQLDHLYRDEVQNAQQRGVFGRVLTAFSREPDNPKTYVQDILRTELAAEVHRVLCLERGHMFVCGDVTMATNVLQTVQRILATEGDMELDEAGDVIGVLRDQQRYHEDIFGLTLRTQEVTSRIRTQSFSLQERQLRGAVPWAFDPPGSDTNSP

[1] = molecular target: Nitric oxide synthase (inducible and endothelial) (Homo sapiens) (UniProt P35228+P29474); assay: Ratio of inhibitory concentration against Endothelial nitric oxide synthase to Inducible nitric oxide synthase; format: protein assay
Nitric oxide synthase 1 = Nitric oxide synthase 1 (Homo sapiens, UniProt P29475); assay: Inhibitory concentration against Neuronal nitric oxide synthase
Sequence of Nitric oxide synthase 1 (P29475 whole entry): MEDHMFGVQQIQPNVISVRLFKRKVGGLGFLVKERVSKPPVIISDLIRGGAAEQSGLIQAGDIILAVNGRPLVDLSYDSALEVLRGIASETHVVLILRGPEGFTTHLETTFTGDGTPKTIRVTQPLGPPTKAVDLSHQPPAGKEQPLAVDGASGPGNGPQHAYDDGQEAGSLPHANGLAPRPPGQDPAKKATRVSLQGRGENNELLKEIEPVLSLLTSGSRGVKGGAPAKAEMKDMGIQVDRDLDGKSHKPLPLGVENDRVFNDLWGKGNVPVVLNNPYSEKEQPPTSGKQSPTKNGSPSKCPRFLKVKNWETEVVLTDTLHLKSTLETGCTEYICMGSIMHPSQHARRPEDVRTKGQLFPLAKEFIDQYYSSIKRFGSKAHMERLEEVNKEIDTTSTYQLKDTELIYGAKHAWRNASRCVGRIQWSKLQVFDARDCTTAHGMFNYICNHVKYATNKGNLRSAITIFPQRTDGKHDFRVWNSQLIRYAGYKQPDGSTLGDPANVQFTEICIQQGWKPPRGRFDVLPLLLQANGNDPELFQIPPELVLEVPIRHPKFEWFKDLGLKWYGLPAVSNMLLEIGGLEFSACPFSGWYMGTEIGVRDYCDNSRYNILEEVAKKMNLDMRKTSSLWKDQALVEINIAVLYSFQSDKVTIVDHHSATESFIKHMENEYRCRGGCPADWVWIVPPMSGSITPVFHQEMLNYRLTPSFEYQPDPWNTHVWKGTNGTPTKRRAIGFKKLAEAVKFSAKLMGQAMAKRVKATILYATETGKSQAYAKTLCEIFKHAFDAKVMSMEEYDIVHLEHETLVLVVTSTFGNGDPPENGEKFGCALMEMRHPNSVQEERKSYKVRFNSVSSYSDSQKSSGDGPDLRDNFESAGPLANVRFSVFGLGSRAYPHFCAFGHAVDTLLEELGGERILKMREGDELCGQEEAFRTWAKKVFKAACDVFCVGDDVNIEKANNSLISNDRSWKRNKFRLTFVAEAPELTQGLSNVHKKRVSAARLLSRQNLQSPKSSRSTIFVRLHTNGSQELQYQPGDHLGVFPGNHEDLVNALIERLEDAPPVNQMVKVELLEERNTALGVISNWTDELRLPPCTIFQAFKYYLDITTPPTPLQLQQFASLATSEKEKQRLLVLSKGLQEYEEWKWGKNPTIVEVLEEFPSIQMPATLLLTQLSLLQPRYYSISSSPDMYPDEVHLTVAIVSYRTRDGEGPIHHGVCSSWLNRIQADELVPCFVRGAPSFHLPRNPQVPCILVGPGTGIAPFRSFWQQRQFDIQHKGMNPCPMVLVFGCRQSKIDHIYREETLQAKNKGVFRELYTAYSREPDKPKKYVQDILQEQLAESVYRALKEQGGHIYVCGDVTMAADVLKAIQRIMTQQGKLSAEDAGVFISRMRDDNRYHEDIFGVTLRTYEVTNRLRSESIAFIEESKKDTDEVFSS

[2] = molecular target: Nitric oxide synthase, inducible (Homo sapiens, UniProt P35228); assay: Inhibitory concentration against Inducible nitric oxide synthase
Sequence of Nitric oxide synthase, inducible (P35228 whole entry): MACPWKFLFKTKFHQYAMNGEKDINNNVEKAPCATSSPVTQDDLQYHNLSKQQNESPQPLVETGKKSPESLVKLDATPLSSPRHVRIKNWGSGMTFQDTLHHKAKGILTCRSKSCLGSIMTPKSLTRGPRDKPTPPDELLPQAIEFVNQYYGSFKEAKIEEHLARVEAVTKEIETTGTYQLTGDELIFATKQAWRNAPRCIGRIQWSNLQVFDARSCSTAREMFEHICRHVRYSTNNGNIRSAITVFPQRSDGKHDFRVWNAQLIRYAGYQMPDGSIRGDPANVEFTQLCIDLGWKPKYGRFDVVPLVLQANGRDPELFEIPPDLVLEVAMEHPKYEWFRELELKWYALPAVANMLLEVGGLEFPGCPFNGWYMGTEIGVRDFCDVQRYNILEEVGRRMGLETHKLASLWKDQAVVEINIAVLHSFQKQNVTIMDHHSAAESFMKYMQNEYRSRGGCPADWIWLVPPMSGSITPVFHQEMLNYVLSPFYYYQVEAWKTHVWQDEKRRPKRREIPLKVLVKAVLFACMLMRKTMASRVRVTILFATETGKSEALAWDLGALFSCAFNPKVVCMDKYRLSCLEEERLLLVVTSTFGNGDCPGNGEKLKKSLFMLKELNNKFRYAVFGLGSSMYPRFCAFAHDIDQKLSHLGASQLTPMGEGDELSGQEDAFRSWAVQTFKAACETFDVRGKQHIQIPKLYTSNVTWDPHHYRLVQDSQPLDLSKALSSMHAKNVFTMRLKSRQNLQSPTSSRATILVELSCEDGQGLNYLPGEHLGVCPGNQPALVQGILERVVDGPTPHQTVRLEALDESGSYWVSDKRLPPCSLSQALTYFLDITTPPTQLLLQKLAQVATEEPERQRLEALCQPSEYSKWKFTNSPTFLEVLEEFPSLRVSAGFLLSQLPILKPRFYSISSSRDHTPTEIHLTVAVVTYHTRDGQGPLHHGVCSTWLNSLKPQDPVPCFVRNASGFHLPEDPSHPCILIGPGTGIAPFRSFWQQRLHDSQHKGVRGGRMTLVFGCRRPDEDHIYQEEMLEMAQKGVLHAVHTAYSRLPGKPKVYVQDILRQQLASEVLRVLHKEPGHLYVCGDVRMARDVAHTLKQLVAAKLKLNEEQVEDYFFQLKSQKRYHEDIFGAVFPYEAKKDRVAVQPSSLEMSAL

| Structure (SMILES) | IC50 (Nitric oxide synthase 3) [nM] | Selectivity [1] | IC50 (Nitric oxide synthase 1) [nM] | IC50 [2] [nM] |
| --- | --- | --- | --- | --- |
| CC1CSCCC(N)=N1 (stereo not drawn) | 5000 | 6.1 | 1800 | 810 |
| NC1=NC(CO)CSCC1 (stereo not drawn) | 6000 | 5.3 | 2700 | 1100 |
| CCCCC1CSCCC(N)=N1 (stereo not drawn) | 77000 | 164 | 1200 | 500 |
| CC1CSCCN=C1N (stereo not drawn) | > 50000 | – | > 50000 | > 50000 |
| CCC[C@@H]1CSCCC(=N)N1 | 50000 | – | 7100 | 1200 |
| CCC[C@@H]1CSCCC(N)=N1 | – | 42 | – | – |
| CC(=N)NCCCC[C@H](N)C(=O)O | – | 3.7 | – | – |
| CC1CC(N)=NC2CCCCC2S1 (stereo not drawn) | > 50000 | – | > 50000 | > 50000 |
| NC1=NCCCOC1 | 450 | – | – | – |
| NC1=NCCSCC1 | 13400 | 9.5 | 4300 | 1400 |
| NC1=NCCNCC1 | > 50000 | – | > 50000 | > 50000 |
| NC1=NCCCSC1 | 10500 | 8.8 | 2800 | 1200 |
| CCC1CSCCC(N)=N1 (stereo not drawn) | 1100 | 3.7 | 590 | 310 |
| CCCC1CSCCC(N)=N1 (stereo not drawn) | 50000 | 172 | 2800 | 290 |
| CC1CN=C(N)CCS1 (stereo not drawn) | 4100 | 1.1 | 830 | 3500 |
| CC(C)CC1CSCCC(N)=N1 (stereo not drawn) | 60000 | 186 | 1900 | 320 |
| CCC[C@H]1CSCCC(N)=N1 | 1000 | 5.2 | 440 | 190 |
| CC1CC(N)=NCCS1 (stereo not drawn) | 5000 | 1.6 | 1000 | 3000 |
| NC1=NCCOCC1 | 25000 | 2.1 | 8700 | 11800 |
